Experimental data from patent US7384961B2, “Saturated and unsaturated heteroarylcycloalkylmethyl amines as anti-depressants” (priority 2002, dated 2008).
Where a name gives a salt, the structure may show the parent alone. Read-outs that look alike come from different tables or passages of the source.

Key:
5-HT re-uptake = biological target: T1, 5-HT re-uptake (Rattus norvegicus, UniProt P31652); assay: Inhibition of 5-HT re-uptake in rat brain synaptosomes (P2 fraction, medulla + pons); type: biochemical; details: for inhibition at 10 µM: 10 μmol/l
T1 construct: synaptosomes are freshly isolated from rat brain areas; from tissue; host or cells: rat brain synaptosomes (P2 fraction), medulla + pons region, male rats
T1 sequence (P31652 whole entry): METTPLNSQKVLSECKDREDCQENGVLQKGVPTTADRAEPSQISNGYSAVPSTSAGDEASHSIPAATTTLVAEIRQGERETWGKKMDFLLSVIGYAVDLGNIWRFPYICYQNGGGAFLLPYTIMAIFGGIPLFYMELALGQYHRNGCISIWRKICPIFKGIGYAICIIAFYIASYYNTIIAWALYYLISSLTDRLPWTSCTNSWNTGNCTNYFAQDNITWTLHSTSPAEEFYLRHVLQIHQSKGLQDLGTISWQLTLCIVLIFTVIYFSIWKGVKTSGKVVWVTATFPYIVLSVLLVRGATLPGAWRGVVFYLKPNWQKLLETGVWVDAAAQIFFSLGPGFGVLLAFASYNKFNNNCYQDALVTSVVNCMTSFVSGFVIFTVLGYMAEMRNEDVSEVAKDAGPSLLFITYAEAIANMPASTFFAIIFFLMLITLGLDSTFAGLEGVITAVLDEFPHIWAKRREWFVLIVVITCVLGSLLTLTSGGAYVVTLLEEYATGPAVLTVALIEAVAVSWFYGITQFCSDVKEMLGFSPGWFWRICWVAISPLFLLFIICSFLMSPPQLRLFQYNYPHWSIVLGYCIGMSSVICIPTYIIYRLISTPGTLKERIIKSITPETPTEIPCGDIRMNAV
Description: (§1) a) Investigations of the Inhibition of the Re-uptake of 5-HT and NA
(§2) In order to be able to carry out these in vitro studies, synaptosomes are freshly isolated from rat brain areas. […] These vesicular particles are isolated from the hypothalamus for the NA re-uptake and from the medulla +pons region of male rat brains for the 5-HT re-uptake.
(§3) The IC50 values were obtained with the aid of the “Figure P” computer program (version 6.0, Biosoft, Cambridge, England). […] The “Ligand” computer program (version 4, Biosoft, England) was used to obtain KD values.

NA re-uptake = biological target: T2, NA re-uptake (Rattus norvegicus, UniProt Q63380); assay: Inhibition of NA re-uptake in rat brain synaptosomes (P2 fraction, hypothalamus); type: biochemical; details: for inhibition at 10 µM: 10 μmol/l
T2 construct: synaptosomes are freshly isolated from rat brain areas; from tissue; host or cells: rat brain synaptosomes (P2 fraction), hypothalamus
T2 sequence (Q63380 1-617): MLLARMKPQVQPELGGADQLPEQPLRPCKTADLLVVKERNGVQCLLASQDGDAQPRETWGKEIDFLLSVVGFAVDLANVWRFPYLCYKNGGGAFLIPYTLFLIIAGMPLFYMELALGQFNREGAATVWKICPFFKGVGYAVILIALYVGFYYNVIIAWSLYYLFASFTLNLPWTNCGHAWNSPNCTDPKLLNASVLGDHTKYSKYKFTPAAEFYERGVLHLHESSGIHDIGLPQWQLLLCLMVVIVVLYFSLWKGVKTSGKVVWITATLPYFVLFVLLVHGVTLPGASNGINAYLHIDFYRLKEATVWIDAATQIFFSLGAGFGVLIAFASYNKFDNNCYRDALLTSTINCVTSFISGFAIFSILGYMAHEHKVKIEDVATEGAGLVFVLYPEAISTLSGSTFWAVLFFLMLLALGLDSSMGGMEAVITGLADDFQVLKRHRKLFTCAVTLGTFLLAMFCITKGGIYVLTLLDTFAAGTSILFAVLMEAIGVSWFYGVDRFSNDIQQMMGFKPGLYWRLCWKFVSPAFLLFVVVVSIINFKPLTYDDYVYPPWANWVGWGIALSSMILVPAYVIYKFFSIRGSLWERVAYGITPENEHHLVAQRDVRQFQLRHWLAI
Description: as §1, §2, §3

mice = assay: Formalin test in mice (analgesic action, chronic pain component); type: in vivo; details: for ED50: Mus musculus, iv, read-out: Inhibition of the nociceptive behaviour versus control, ED50 value
Experimental: b) Investigations of the Analgesic Actions in the Formalin Test in Mice
The formalin test (Dubuisson, D. and Dennis, S. G., 1977, Pain, 4, 161-174) represents a model of acute and chronic pain. The chronic pain component was evaluated in the investigations described here.
A biphase nociceptive reaction which is recorded by observing three behaviour patterns which can be clearly differentiated from one another is induced in freely mobile test animals by a single formalin injection into the dorsal side of a hind paw.
Formalin is administered subcutaneously into the dorsal side of the right hind paw of each animal in a volume of 20 μl and a concentration of 1%.
The specific changes in behaviour which differ from the normal behaviour (score 0), such as raising (score 1) and shaking the paw (score 2) and biting and licking reactions (score 3), are observed and recorded continuously at component intervals of 3 min for up to 60 min after the administration of formalin. The changes in behaviour are weighted in different ways (score 0-3) and a pain rate (PR) is calculated using the following formula: PR=[(T0×0)+(T1×1)+(T2×2)+(T3×3)]/180.
The group size is 10 animals (n=10).
On the basis of the PR calculations, the action of the substance was determined as the change from a control in percent. The ED50 was determined by means of regression analysis.

`CN(C)C[C@@H]1CCCC[C@@H]1c1cccnc1` (relative stereo) [Example 6, cis-Dimethyl-(2-pyridin-3-yl-cyclohexylmethyl)amine hydrochloride] gave an inhibition at 10 µM (5-HT re-uptake) of 94% and an inhibition at 10 µM (NA re-uptake) of 25%.
`CN(C)C[C@@H]1CCCC[C@H]1c1cccnc1.Cl` (relative stereo) [Example 7, trans-Dimethyl-(2-pyridin-3-yl-cyclohexylmethyl)amine hydrochloride] was tested, and the ED50 (mice) was 2.55 mg/kg, the inhibition at 10 µM (5-HT re-uptake) was 95% and the inhibition at 10 µM (NA re-uptake) was 22%.
`CN(C)C[C@@H]1CCCCC[C@@H]1c1cccnc1` (relative stereo) [Example 26, cis-Dimethyl-(2-pyridin-3-yl-cycloheptylmethyl)-amine hydrochloride] showed an inhibition at 10 µM (5-HT re-uptake) of 82% and an inhibition at 10 µM (NA re-uptake) of 28%.
In the case of `CN(C)C[C@@H]1CCCCC[C@H]1c1cccnc1` (relative stereo) [Example 27, trans-Dimethyl-(2-pyridin-3-yl-cycloheptylmethyl)-amine hydrochloride], the inhibition at 10 µM (5-HT re-uptake) is reported as 88% and the inhibition at 10 µM (NA re-uptake) is reported as 54%.
With `CN(C)C[C@@H]1CSCC[C@@]1(O)c1cccnc1.Cl` (relative stereo) [Example 50, cis-3-Dimethylaminomethyl-4-pyridin-3-yl-tetrahydrothiopyran-4-ol hydrochloride] the “Inhibition of the nociceptive behaviour versus control; % inhibition” value (“Inhibition … % inhibition” below) (mice; 21.5 mg/kg i.v., mice) was 37.0%, the “5-HT re-uptake inhibition (10 μmol/l)” value (5-HT re-uptake) was 54% and the “NA re-uptake inhibition (10 μmol/l)” value (NA re-uptake) was 29%.
With `COc1cncc([C@@H]2CCCCCC[C@H]2CN(C)C)c1` (relative stereo) [Example 70, trans-[2-(5-Methoxy-pyridin-3-yl)-cyclooctylmethyl]-dimethyl-amine and the corresponding hydrochloride] the “5-HT re-uptake inhibition (10 μmol/l)” value (5-HT re-uptake) was 89% and the “NA re-uptake inhibition (10 μmol/l)” value (NA re-uptake) was 52%.
In the case of `COc1cncc([C@H]2CCCCCC[C@H]2CN(C)C)c1` (relative stereo) [Example 72, cis-[2-(5-Methoxy-pyridin-3-yl)-cyclooctylmethyl] -dimethyl-amine hydrochloride], the inhibition at 10 µM (5-HT re-uptake) is reported as 60% and the inhibition at 10 µM (NA re-uptake) is reported as 53%.
For `CNCC1=C(c2cccnc2)CCCC1.Cl` [Example 2, Methyl-(2-pyridin-3-yl-cyclohex-1-enylmethyl)amine hydrochloride], the “Inhibition … % inhibition” value (mice; 21.5 mg/kg i.v., mice) was 88%, the inhibition at 10 µM (5-HT re-uptake) was 69% and the inhibition at 10 µM (NA re-uptake) was 15%.
For `CN(CC1=C(c2cccnc2)CCCC1)Cc1ccccc1.Cl` [Example 10, Benzylmethyl-(2-pyridin-3-yl-cyclohex-1-enylmethyl)amine hydrochloride], the “Inhibition … % inhibition” value (mice; 10 mg/kg i.v., mice) was 66.3%.
`CN(C)CC1CCCCCC1(Cl)c1ccc(Cl)nc1` (stereo not drawn) [Example 13, [2-Chloro-2-(6-chloro-pyridin-3-yl)-cycloheptylmethyl]-dimethyl-amine hydrochloride] was tested, and the inhibition at 10 µM (5-HT re-uptake) was 38% and the inhibition at 10 µM (NA re-uptake) was 75%.
For `CN(C)CC1CCCCC1(Cl)c1cccnc1` (stereo not drawn) [Example 14, (2-Chloro-2-pyridin-3-yl-cyclohexylmethyl)-dimethyl-amine hydrochloride], the inhibition at 10 µM (5-HT re-uptake) was 73% and the inhibition at 10 µM (NA re-uptake) was 27%.
In the case of `CN(C)CC1CCCCC1(Cl)c1ccc(Cl)nc1` (stereo not drawn) [Example 15, [2-Chloro-2-(6-chloro-pyridin-3-yl)-cyclohexylmethyl]-dimethyl-amine hydrochloride], the inhibition at 10 µM (5-HT re-uptake) is reported as 51% and the inhibition at 10 µM (NA re-uptake) is reported as 53%.
`CN(C)CC1=C(c2cccnc2)CCCCC1.Cl` [Example 23, Dimethyl-(2-pyridin-3-yl-cyclohept-1-enylmethyl)-amine hydrochloride] was tested, and the ED50 (mice) was 2.44 mg/kg, the inhibition at 10 µM (5-HT re-uptake) was 86% and the inhibition at 10 µM (NA re-uptake) was 50%.
Molecule `CN(C)CC1CCCCC=C1c1cccnc1.Cl` (stereo not drawn) [Example 24, Dimethyl-(2-pyridin-3-yl-cyclohept-2-enylmethyl)-amine hydrochloride] has an ED50 (mice) of 5.4 mg/kg, an inhibition at 10 µM (5-HT re-uptake) of 67% and an inhibition at 10 µM (NA re-uptake) of 19%.
In the case of `CN(C)CC1=C(c2cccnc2)CCC1.Cl` [Example 28, Dimethyl-(2-pyridin-3-yl-cyclopent-1-enylmethyl)-amine hydrochloride], the “Inhibition … % inhibition” value (mice; 10 mg/kg i.v., mice) is reported as 92.6%, the inhibition at 10 µM (5-HT re-uptake) is reported as 83% and the inhibition at 10 µM (NA re-uptake) is reported as 29%.
Work on `CN(C)CC1CCC=C1c1cccnc1` (stereo not drawn) [Example 29, Dimethyl-(2-pyridin-3-yl-cyclopent-2-enylmethyl)-amine hydrochloride] yielded an inhibition at 10 µM (5-HT re-uptake) of 69% and an inhibition at 10 µM (NA re-uptake) of 64%.
`CN(C)CC1CCCC1c1cccnc1.Cl` (stereo not drawn) [Example 31, Dimethyl-(2-pyridin-3-yl-cyclopentylmethyl)-amine hydrochloride] was tested, and the “Inhibition … % inhibition” value (mice; 10 mg/kg i.v., mice) was 89.7%, the inhibition at 10 µM (5-HT re-uptake) was 70% and the inhibition at 10 µM (NA re-uptake) was 8%.
`CN(C)CC1=C(c2cccnc2)CCCCCC1.Cl` [Example 32, Dimethyl-(2-pyridin-3-yl-cyclooct-1-enylmethyl)-amine hydrochloride] gave an ED50 (mice; mice, formalin test) of 2.77 mg/kg, an inhibition at 10 µM (5-HT re-uptake) of 78% and an inhibition at 10 µM (NA re-uptake) of 55%.
Molecule `CN(C)CC1CCCCCC=C1c1cccnc1` (stereo not drawn) [Example 33, Dimethyl-(2-pyridin-3-yl-cyclooct-2-enylmethyl)-amine hydrochloride] has an inhibition at 10 µM (5-HT re-uptake) of 74% and an inhibition at 10 µM (NA re-uptake) of 50%.
`CN(C)CC1=C(c2ccncc2)CCCCC1` [Example 38, Dimethyl-(2-pyridin-4-yl-cyclohept-1-enylmethyl)-amine hydrochloride] was tested, and the inhibition at 10 µM (5-HT re-uptake) was 76% and the inhibition at 10 µM (NA re-uptake) was 73%.
Work on `CN(C)CC1CCCCC=C1c1ccc(Cl)nc1` (stereo not drawn) [Example 48, [2-(6-chloro-pyridin-3-yl)-cyclohept-2-enylmethyl]-dimethyl-amine hydrochloride] yielded an inhibition at 10 µM (5-HT re-uptake) of 81% and an inhibition at 10 µM (NA re-uptake) of 82%.
`CN(C)CC1=C(c2ccc(Cl)nc2)CCCC1` [Example 49, [2-(6-Chloro-pyridin-3-yl)-cyclohex-1-enylmethyl]-dimethyl-amine hydrochloride] gave an inhibition at 10 µM (5-HT re-uptake) of 55% and an inhibition at 10 µM (NA re-uptake) of 67%.
`COc1cncc(C2=C(CN(C)C)CCCC2)c1` [Example 54, [2-(5-Methoxy-pyridin-3-yl)-cyclohex-1-enylmethyl]-dimethyl-amine hydrochloride] showed an inhibition at 10 µM (5-HT re-uptake) of 85% and an inhibition at 10 µM (NA re-uptake) of 17%.
With `COc1cncc(C2=CCCCC2CN(C)C)c1` (stereo not drawn) [Example 55, [2-(5-Methoxy-pyridin-3-yl)-cyclohex-2-enylmethyl]-dimethyl-amine hydrochloride] the inhibition at 10 µM (5-HT re-uptake) was 67% and the inhibition at 10 µM (NA re-uptake) was 34%.
`COc1cncc(C2CCCCCC2CN(C)C)c1` (stereo not drawn) [Example 60, [2-(5-Methoxy-pyridin-3-yl)-cycloheptylmethyl] -dimethyl-amine hydrochloride] showed an inhibition at 10 µM (5-HT re-uptake) of 75% and an inhibition at 10 µM (NA re-uptake) of 30%.
Work on `COc1cncc(C2CCCCC2CN(C)C)c1` (stereo not drawn) [Example 62, [2-(5-Methoxy-pyridin-3-yl)-cyclohexylmethyl] -dimethyl-amine hydrochloride] yielded an inhibition at 10 µM (5-HT re-uptake) of 77% and an inhibition at 10 µM (NA re-uptake) of 13%.
For `CN(C)CC1=C(c2cncc(O)c2)CCCC1` [Example 64, 5-(2-Dimethylaminomethyl-cyclohex-1-enyl)-pyridin-3-ol hydrochloride], the inhibition at 10 µM (5-HT re-uptake) was 68% and the inhibition at 10 µM (NA re-uptake) was 6%.
In the case of `CCCN(CCC)CC1=C(c2cccnc2)CCCC1.Cl` [Example 65, Dipropyl-(2-pyridin-3-yl-cyclohex-1-enylmethyl)-amine hydrochloride], the “Inhibition … % inhibition” value (mice; 4.64 mg/kg i.v., mice) is reported as −39.4%, the inhibition at 10 µM (5-HT re-uptake) is reported as 54% and the inhibition at 10 µM (NA re-uptake) is reported as -8%.
`CN(C)CC1=C(c2ccc(Cl)nc2)CCCC1.Cl` [Example 68, [2-(6-Chloro-pyridin-3-yl)-cyclohex-1-enylmethyl]-dimethyl-amine hydrochloride] was tested, and the “5-HT re-uptake inhibition (10 μmol/l)” value (5-HT re-uptake; hydrochloride) was 67% and the “NA re-uptake inhibition (10 μmol/l)” value (NA re-uptake; hydrochloride) was 62%.
`CN(C)CC1CCCCCC=C1c1ccc(Cl)nc1` (stereo not drawn) [Example 71, [2-(6-Chloro-pyridin-3-yl)-cyclooct-2-enylmethyl] -dimethyl-amine hydrochloride] showed an inhibition at 10 µM (5-HT re-uptake) of 74% and an inhibition at 10 µM (NA re-uptake) of 77%.
`COc1cncc(C2=CCCCCCC2CN(C)C)c1` (stereo not drawn) [Example 73, [2-(5-Methoxy-pyridin-3-yl)-cyclooct-2-enylmethyl] -dimethyl-amine hydrochloride] was tested, and the inhibition at 10 µM (5-HT re-uptake) was 89% and the inhibition at 10 µM (NA re-uptake) was 55%.
`COc1cncc(C2=C(CN(C)C)CCCCCC2)c1` [Example 74, [2-(5-Methoxy-pyridin-3-yl)-cyclooct-1-enylmethyl] -dimethyl-amine hydrochloride] was tested, and the inhibition at 10 µM (5-HT re-uptake) was 72% and the inhibition at 10 µM (NA re-uptake) was 56%.
